“Also recorded” adds a separate entry of the source.
Legend:
SUM149 cells [1] = test: Colony formation (clonogenic) assay, SUM149 cells; type: cell-based, human; settings: vs DMSO
Protocol: Cell growth was assessed by colony formation assays: MDA-IBC3 cells (5.5×10^4 cells/mL) or SUM149 (5.0×10^4 cells/mL) were seeded into 6-well plates. Twenty-four hours later, siRNAs were added to the cells. Twenty-four hours (MDA-IBC3 cells) or forty-eight hours (SUM149) after transfection, 1500 cells for MDA-IBC3 and 1000 cells for SUM149 were seeded into 10-cm Petri dishes containing Hams F-12 (10% FBS, 0.1% antibiotic/antimycotic solution, 0.001% insulin from bovine pancreas, and 0.005% hydrocortisone), and incubated at 37° C. Twelve days (SUM149 cells) or 19 days (MDA-IBC3 cells) later, colony-forming cells were stained with 0.5% crystal violet solution. Colonies (with at least 50 cells) were counted under a light microscope (Olympus CKX41) in five random fields with a total magnification of 10×.
(§1) For cell viability, SUM149 (5.0×10^4 cells/mL) were seeded in 96-well plates. Twenty-four hours later, cells were treated with serial dilutions (0.01 μM, 0.1 μM, 1.0 μM, 10 μM, and 100 μM, final concentrations) of the LCN2 inhibitors. Seventy-two hours after treatment, cell viability was performed as above described, taking the DMSO (1%) treated OD values as the normalization control. For colony formation assays, SUM149 cells (5.0×10^4 cells/mL), MCF7 (4.5×10^4 cells/mL), MCF7-LCN2 (4.5×10^4 cells/mL), or MCF7-EV (4.5×10^4 cells/mL) were seeded into 24-well plates and incubated at 37° C. Twenty-four hours later, LCN2 inhibitors bought to Asinex corporation (North chestnut, NC) were dissolved in DMSO (0.2%) and added to the cells at 10 μM, 1 μM, and 0.1 μM (final concentrations). NT cells and DMSO (0.2%) treated cells were used as controls. SUM149 (500 cells) and MCF7 (3,000 cells) cells were seeded in 6-well plates per treatment for colony formation assays.

Caspase-3 = Caspase-3 fluorometric activity assay; type: cell-based, human; settings: positive control, 0.5 nM; cell line not given
Protocol: Caspase-3 activity was assessed using a caspase-3/CPP32 fluorometric assay kit (Bio Vision, CA, USA) as described in the manufacturer's protocol, with some modifications. Briefly, SUM149 (5.0×10^4 cells/mL) and MDA-IBC3 (5.5×10^4 cells/mL) were seeded in 10 cm Petri dishes and transiently transfected with siRNAs as above described. Docetaxel (0.5 nM final concentration) was used as a positive control. Seventy-two hours post-transfection cells were collected, protein extracts were obtained and incubated with the Asp-Glu-Val-Asp (DEVD) peptide substrate—which is conjugated to the 7-amino-4-trifluoromethyl coumarin (AFC)—at 37° C. for 60 min. Releasing of AFC was measured with a fluorometric plate reader (Varioskan LUX, ThermoFisher, USA) at an excitation wavelength of 400 nm and an emission wavelength of 505 nm. The fold-change increase in caspase-3 activity was determined by comparing the release of AFC from the siRNA-transfected cells with the AFC release by the untreated cells.

SUM149 cells [2] = test: Cell viability, Alamar Blue, SUM149 cells; type: cell-based; settings: Homo sapiens, 72 hours, vs DMSO, read-out: reduction of cell viability
Protocol: MDA-IBC3 cells (5.5×10^4 cells/mL) or SUM149 (5.0×10^4 cells/mL) were seeded in 96-well plates. Twenty-four hours later, cells were transiently transfected with serial dilutions of LCN2-siRNA and NC-siRNA (12.5 nM, 25 nM, 50 nM, and 100 nM final concentrations) with Lipofectamine 2000 RNAiMax. Seventy-two hours after transfection, the medium was removed, and cell viability was measured using Alamar blue dye (Invitrogen, CA, USA) as previously described by. Optical density (OD) values were obtained spectrophotometrically in a plate reader (Bio-Rad) after 3 hours of dye incubation. In all cases, percentages of cell viability were obtained after blank OD subtraction, taking the untreated cells values as a normalization control.
For cell viability, SUM149 (5.0×10^4 cells/mL) were seeded in 96-well plates. Twenty-four hours later, cells were treated with serial dilutions (0.01 μM, 0.1 μM, 1.0 μM, 10 μM, and 100 μM, final concentrations) of the LCN2 inhibitors. Seventy-two hours after treatment, cell viability was performed as above described, taking the DMSO (1%) treated OD values as the normalization control. For colony formation assays, SUM149 cells (5.0×10^4 cells/mL), MCF7 (4.5×10^4 cells/mL), MCF7-LCN2 (4.5×10^4 cells/mL), or MCF7-EV (4.5×10^4 cells/mL) were seeded into 24-well plates and incubated at 37° C. […]

p-Akt = test: Akt/p-Akt measurements by Western blot; type: cell-based, human; settings: SUM149 cells; for total Akt protein levels: all doses and time-points tested
Protocol: Cell lysates were collected on ice using lysis buffer (1% Triton X, 150 mM NaCl, 25 mM Tris HCl,0.4 mM NaVO4, 0.4 mM NaF and protease inhibitor cocktail from Sigma, St. Louis, MO, USA) and vortexed periodically for 30 min. Lysates were centrifuged for 15 min at 4° C., and supernatants were collected. Total protein concentrations were determined using Bio-Rad DC Protein Assay reagents (Bio-Rad) following the manufacturer's protocol. Equal amounts of protein for each sample (40 μg to 50 μg per lane) were separated by SDS-PAGE, blotted onto nitrocellulose membranes, blocked with 5% non-fat milk, and probed with the appropriate dilution of the corresponding primary antibody. Once incubated with the primary antibody, membranes were rinsed and incubated with the corresponding HRP-conjugated secondary antibody. Bound antibodies were detected using an enhanced chemiluminescence substrate followed by autoradiography using a FluorChem™ 8900 (Alpha Innotech Corporation, San Leandro, CA, USA). Primary antibodies: anti-LCN2 (AF1757) (24 kDa), (R&D System, MN, USA); Caspase 9 (9502) (47 kDa), Caspase 3 (9665) (35 kDa), Cleaved Caspase 9 (20750) (37 kDa), Cleaved Caspase 3 (9664) (17/19 kDa), PARP-1 (46D11) (89,116 kDa), CDK4 (D9G3D) (30 kDa), CDK6 (DCS83) (36 kDa), Cyclin E1 (HE12) (48 kDa), Cyclin E2 (4132) (48 kDa), p21/Waf1/Cip1 (12D1) (21 kDa), p27/Kip1 (D69C12) (27 kDa), Akt (4685) (60 kDa), p-Akt (Ser473) (4060) (60 kDa) (Cell Signaling, Danvers, MA, USA); anti-β-actin (42 kDa) (Sigma). Secondary antibodies: anti-goat IgG horseradish peroxidase (HRP) (HAF 109) (R&D Systems), anti-mouse and anti-rabbit IgG (HRP) (Cell Signaling).
SUM149 cells (5.0×10^4 cells/mL) were seeded in 10-cm Petri plates and incubated at 37° C. Twenty-four hours later, cells were treated with the LCN2 inhibitors ZINC00784494 and ZINC00640089 at 10 μM and 1 μM concentrations. NT and DMSO (0.2% final concentration) treated cells were used as controls. Cell pellets of each condition were collected at 15 minutes, 1 hour, and 24 hours after drug treatment. The p-AKT Akt and Akt protein levels were assessed by Western blots as above described.

MCF7-LCN2 cells = test: Colony formation assay, MCF7-LCN2 cells; type: cell-based, human; settings: vs untreated cells
Protocol: (§2) Ectopic LCN2 expression was performed in breast cancer MCF7 cells. Human LCN2 open reading frame (LCN2ORF) (RC207685, OriGene, Rockville, MD) or empty vector pCMV6-Entry (MCF7-EV) (PS100001, OriGene, Rockville, MD was stable transfected into MCF7 cells. MCF7 cells (4.0×10^4 cells/mL) were seeded in 6-well plates and incubated at 37° C. Twenty-four hours later, 5 μg of LCN2-ORF were mixed with Lipofectamine 2000 RNAiMax transfection reagent (Life Technologies) at a 1:1 (v/v) (plasmid: transfection reagent) in serum and antibiotic-free Opti-MEM medium (Life Technologies) and incubated at 37° C. Six hours later medium was replaced with MCF7 culture media and incubated at 37° C. Forty-eight hours later the antibiotic neomycin was added at a final concentration of 1.8 mg/mL for the selection of transduced MCF7 cells. After 2-3 weeks, independent colonies were picked and cultured separately as independent clones.
as §1

MCF7-EV cells = test: Colony formation assay, MCF7-EV cells; type: cell-based, human; settings: 0.1 μM, 1 μM and 10 μM
Protocol: as §2
For cell viability, SUM149 (5.0×10^4 cells/mL) were seeded in 96-well plates. Twenty-four hours later, cells were treated with serial dilutions (0.01 μM, 0.1 μM, 1.0 μM, 10 μM, and 100 μM, final concentrations) of the LCN2 inhibitors. Seventy-two hours after treatment, cell viability was performed as above described, taking the DMSO (1%) treated OD values as the normalization control. […]

| SMILES | reduction in number of colonies formed (SUM149 cells [1]; 10 μM) [%] | increase of caspase-3 activity (Caspase-3) | cytotoxicity at 10 µM (SUM149 cells [2]) [%] | p-AKT protein levels (p-Akt; 10 μM and 1 μM) | total Akt protein levels (p-Akt) | decrease in colony formation (MCF7-LCN2 cells; 0.1 μM) [%] | decrease in colony formation (MCF7-LCN2 cells; 1 μM) [%] | decrease in colony formation (MCF7-LCN2 cells; 10 μM) [%] | reduction in number of colonies formed (SUM149 cells [1]; 1 μM) [%] | p-Akt protein levels (p-Akt; 10 μM and 1 μM, 15 minutes and 1 hour after treatment, vs DMSO) | p-Akt protein levels (p-Akt; 24 hours after treatment) | colony formation (MCF7-EV cells) |
| --- | --- | --- | --- | --- | --- | --- | --- | --- | --- | --- | --- | --- |
| Cc1cc(-c2ccccc2)nc2cc(C(=O)N3CCCc4ccccc43)nn12 [ZINC00829534] | 41 |  |  |  |  |  |  |  |  |  |  |  |
| CC(=O)O[C@@]12CO[C@@H]1C[C@H](O)[C@@]1(C)C(=O)[C@H](O)C3=C(C)[C@@H](OC(=O)[C@H](O)[C@@H](NC(=O)OC(C)(C)C)c4ccccc4)C[C@@](O)([C@@H](OC(=O)c4ccccc4)[C@H]21)C3(C)C [Docetaxel] |  | two-fold increase |  |  |  |  |  |  |  |  |  |  |
| O=C(CN1C(=O)c2cccc3cccc1c23)Nc1ccccc1C(F)(F)F [ZINC00640089] | 42 |  | 35 | reduced p-Akt in a dose-dependent manner; also recorded: reduction | unaltered | 24 | 54 | 57 |  |  |  |  |
| O=C(NC(Nc1ncccn1)C(=O)c1ccccc1)c1ccccc1 (stereo not drawn) [ZINC00230567] | 62 |  |  |  |  |  |  |  |  |  |  |  |
| CC(=O)c1cccc(Nc2nc(-c3cc4ccccc4oc3=O)cs2)c1 [ZINC00784494] | 37 |  | 57 | reduced p-Akt in a dose-dependent manner | unaltered | 23 | 41 | 49 | 43 | reduced | not observed | did not cause any effect |

From patent US20250073257A1, “SMALL MOLECULE AND SIRNA INHIBITORS AGAINST LIPOCALIN-2” (UNIVERSITY OF PUERTO RICO, priority 2021, published 2025)
